Laboratory results taken from ChEMBL document CHEMBL6121000, “Corosolic acid and its derivatives targeting MCCC1 against insulin resistance and their hypoglycemic effect on type 2 diabetic mice” (Eur J Med Chem, 2025).
Active and inactive are the calls of the source. No cut-off for these calls is given here.

Legend:
HepG2 = assay: Inhibition of insulin resistance in human HepG2 cells assessed as decrease in GlcN-induced glucose production at 20 uM preincubated for 1 hr followed by GlcN treatment for 18 hrs and subsequent insulin stimulation for 20 mins; type: functional, cell-based; settings: time 19.33 hrs
[1] = Cytotoxicity against human HepG2 cells assessed as cell viability at 80 uM incubated for 24 hrs by CCK8 assay relative to control; type: toxicity, cell-based; settings: HepG2 cells, read-out: Activity

Compound	inhibition (HepG2)	viability at 24 h, 80 µM [1] [%]
COC(=O)C(Cc1ccc(OC)cc1)NC(=O)[C@]12CC[C@@H](C)[C@H](C)[C@H]1C1=CC[C@@H]3[C@@]4(C)C[C@@H](O)[C@H](O)C(C)(C)[C@@H]4CC[C@@]3(C)[C@]1(C)CC2 (stereo partly specified)	Active	> 80
C[C@H]1[C@H](C)CC[C@]2(C(=O)OCc3ccccc3)CC[C@]3(C)C(=CC[C@@H]4[C@@]5(C)CC[C@H](O)C(C)(C)[C@@H]5CC[C@]43C)[C@H]12	Active	> 80
CCCCC(=O)NCCCNC(=O)[C@]12CC[C@@H](C)[C@H](C)[C@H]1C1=CC[C@@H]3[C@@]4(C)C[C@@H](O)[C@H](O)C(C)(C)[C@@H]4CC[C@@]3(C)[C@]1(C)CC2	Active	> 80
C[C@H]1[C@H](C)CC[C@]2(C(=O)OCc3ccccc3)CC[C@]3(C)C(=CC[C@@H]4[C@@]5(C)C[C@@H](O)[C@H](O)C(C)(C)[C@@H]5CC[C@]43C)[C@H]12		12.3
COC(=O)CCCCNC(=O)[C@]12CC[C@@H](C)[C@H](C)[C@H]1C1=CC[C@@H]3[C@@]4(C)C[C@@H](O)[C@H](O)C(C)(C)[C@@H]4CC[C@@]3(C)[C@]1(C)CC2	Active	> 80
C[C@H]1[C@H](C)CC[C@]2(C(=O)NC(=O)NC3CC3)CC[C@]3(C)C(=CC[C@@H]4[C@@]5(C)C[C@@H](O)[C@H](O)C(C)(C)[C@@H]5CC[C@]43C)[C@H]12	Active	> 80
CCOC(=O)[C@H](C)NC(=O)[C@]12CC[C@@H](C)[C@H](C)[C@H]1C1=CC[C@@H]3[C@@]4(C)C[C@@H](O)[C@H](O)C(C)(C)[C@@H]4CC[C@@]3(C)[C@]1(C)CC2		> 80
CC(=O)O[C@@H]1C[C@]2(C)[C@H]3CC=C4[C@@H]5[C@@H](C)[C@H](C)CC[C@]5(C(=O)NCCCNC(=O)OCC5c6ccccc6-c6ccccc65)CC[C@@]4(C)[C@]3(C)CC[C@H]2C(C)(C)[C@H]1OC(C)=O		> 80
C[C@H]1[C@H](C)CC[C@]2(C(=O)O)CC[C@]3(C)C(=CC[C@@H]4[C@@]5(C)CC[C@H](O)C(C)(C)[C@@H]5CC[C@]43C)[C@H]12 [URSOLIC ACID]		7.85
C[C@H]1[C@H](C)CC[C@]2(C(=O)O[C@H]3O[C@H](CO)C(O)[C@@H](O)[C@H]3O)CC[C@]3(C)C(=CC[C@@H]4[C@@]5(C)C[C@@H](O)[C@H](O)C(C)(C)[C@@H]5CC[C@]43C)[C@H]12 (single isomer, unassigned)		64.5
C[C@H]1[C@H](C)CC[C@]2(C(=O)NCCCN)CC[C@]3(C)C(=CC[C@@H]4[C@@]5(C)C[C@@H](O)[C@H](O)C(C)(C)[C@@H]5CC[C@]43C)[C@H]12		> 80
C[C@H]1[C@H](C)CC[C@]2(C(=O)NCCCNC(=O)c3ccccc3)CC[C@]3(C)C(=CC[C@@H]4[C@@]5(C)C[C@@H](O)[C@H](O)C(C)(C)[C@@H]5CC[C@]43C)[C@H]12		> 80
C[C@H]1[C@H](C)CC[C@]2(C(=O)On3nnc4ccccc43)CC[C@]3(C)C(=CC[C@@H]4[C@@]5(C)C[C@@H](O)[C@H](O)C(C)(C)[C@@H]5CC[C@]43C)[C@H]12		> 80
CCOC(=O)CNC(=O)[C@]12CC[C@@H](C)[C@H](C)[C@H]1C1=CC[C@@H]3[C@@]4(C)C[C@@H](O)[C@H](O)C(C)(C)[C@@H]4CC[C@@]3(C)[C@]1(C)CC2		> 80
C[C@H]1[C@H](C)CC[C@]2(C(=O)OCc3ccccc3)CC[C@]3(C)C(=CC[C@@H]4[C@@]5(C)CCC(=O)C(C)(C)[C@@H]5CC[C@]43C)[C@H]12		> 80
CC(=O)O[C@@H]1C[C@]2(C)[C@H]3CC=C4[C@@H]5[C@@H](C)[C@H](C)CC[C@]5(C(=O)O)CC[C@@]4(C)[C@]3(C)CC[C@H]2C(C)(C)[C@H]1OC(C)=O		58.7
